Numbers after ± are expanded uncertainties.

Series [1] is described as follows: Solid-liquid equilibrium temperature. Conditions: 101.33 kPa; Crystal; DTA.
A short description of series [2]: Molar enthalpy of transition or fusion. Conditions: Crystal; DSC.
Series [3] can be described thus: molar heat capacity at constant pressure. Conditions: 462.02 K; 101.33 kPa; Crystal; Large sample (1 g) DSC.

`COc1ccc2oc(=O)cc(C)c2c1` [6-methoxy-4-methylcoumarin]: the Solid-liquid equilibrium temperature in series [1] is listed as 436.13 ± 0.22 K. Further, the “Molar enthalpy of transition or fusion” value in series [2] worked out at 33.3 ± 0.72 kJ/mol.

With `CCOc1ccc2c(C)cc(=O)oc2c1` [7-ethoxy-4-methyl-2H-chromen-2-one], the Solid-liquid equilibrium temperature in series [1] was 387.52 ± 0.2 K. Moreover, in series [2], the “Molar enthalpy of transition or fusion” value was 25.8 ± 0.73 kJ/mol.

As to `Cc1cc(=O)oc2cc(O)ccc12` [7-hydroxy-4-methyl-2H-chromen-2-one], in series [1], the Solid-liquid equilibrium temperature came to 462.02 ± 0.24 K. Also, the “Molar enthalpy of transition or fusion” value in series [2] stood at 31.4 ± 0.69 kJ/mol. The “molar heat capacity at constant pressure” value in series [3] amounted to 8.971 ± 0.18 J/K/mol.

These data come from the NIST ThermoML archive (doi:10.1016/j.jct.2011.04.013).
